Drawing on US20250313535A1, “ALPHA 4 BETA 7 INTEGRIN MODULATORS AND USES THEREOF” (DICE MOLECULES SV, INC., priority 2022, published 2025), this text covers IC50 for 26 compounds.

The target in one experiment is α4β7 integrin (Homo sapiens (Human), UniProt P13612+P26010). Description: Integrin Adhesion Assay: Protocol 4 (MAdCAM-coated plate, RPMI-8866 cells with stable LOF mutation of the ITGB1 gene). Format: cell-based. The note with it: RPMI-8866 cells with stable LOF mutation of the ITGB1 gene; read-out: Mean IC50 α4β7 KO^a. The procedure:
(§1) Integrin Adhesion Assay Using Genetically Modified Cells Generating Stable Cell Lines with ITGB1 or ITGB7 Knockout (Protocol 4 and Protocol 5)
(§2) To obtain subclones of the RPMI-8866 cell line (Sigma-Aldrich, St. Louis, MO) that were individually deficient in either integrin β1 or integrin β 7, CRISPR/Cas9 technology was employed (PMID: 30108345). Specifically, a Neon™ Transfection System System 10 μL Kit and the Neon™ Transfection device (both from ThermoFisher Scientific) were used.
(§3) The protocol was performed following the manufacturer instructions, described in https://www.thermofisher.com/document-connect/document-connect.html?url=https % 3A%2F%2F assets.thermofisher.com%2FTFS-Assets%2FLSG%2Fmanuals%2FMAN0017066_TrueCut Cas9_Protein_v2_UG.pdf, which is incorporated by reference herein in its entirety.
(§4) RPMI-8866 cells were transferred to a flask the day before transfection, at a confluence of 5×10^5 cells/mL. The cells were washed with PBS and resuspended in buffer R (Neon™ Transfection System, Invitrogen) to 2×10^5 cells/10 uL for each reaction. The TrueCut™ HiFi Cas9 Protein (1250 ng per reaction) was mixed with TrueGuide™ sgRNA (7.5 pmoles each/pool of 3 sequences, table 1) (ThermoFisher Scientific). This mix was combined with the RPMI-8866 cells and electroporated on the Neon system at 1700V/20 ms/1 pulse. Transfected cells were allowed to recover in 500 μL pre-warmed cRMPI media (RPMI-1640 media with 10% FBS, 100 U/ml Penicillin-Streptomycin) at 37° C., 5% CO2 for 24 hours. At that time, an extra 500 μL of pre-warmed cRMPI media was added, and cells were incubated for another 24 hours.
(§5) For flow cytometry analysis, 100 μL of the transfected cells were collected and stained with anti-itga4 (Clone: 9F10, PE, BD Pharmingen™), anti-itgb 1 (Clone: (TS2/16), Super Bright 436, eBioscience), anti-itgb7 (Clone: FIB504, Brilliant Violet 650, BD Pharmingen™) and viability dye (LIVE/DEAD™ Fixable Green Dead Cell Stain, Invitrogen™). An Attune NxT Flow Cytometer was used to analyze the CRISPR-transfected cells. The flow cytometry results were analyzed using FlowJo™ v10.8.1 Software (BD Life Sciences). Fluorescence minus one (FMO) controls were used to select appropriate gates for data analysis.
(§6) To generate an individual clones of cells deficient in either ITGB7 or ITGB1 by limiting dilution assay, the transfected cells were resuspended at 5 cells/mL and seeded in 384 well plates. Outgrowth of clones was monitored using a microscope, and 24 clones were transferred for expansion. Expression of either integrin was verified by flow cytometry in each of the clones. One clone of each integrin b7 or the integrin b1 knockout was chosen, expanded and aliquots were frozen in vapor phase liquid nitrogen.
Integrin Adhesion Assay: Protocol 4
(§7) MAdCAM (R&D Systems, 0.1 ug) was diluted in 50 μL PBS, added to each well of an opaque ELISA plate (Thermo), and incubated overnight at 4° C. Coated plates were washed once with PBS and then blocked with 200 μL of assay buffer (10 mM HEPES, 150 mM NaCl, 1 mM MnCl2, 0.1 mM CaCl2), 1% BSA) for 1 hour at 37° C. and 5% CO2. After incubation, buffer was aspirated from the plates and 50 μL of fresh assay buffer was added. Compounds were added using a compounds dispenser (Tecan), and DMSO concentration was normalized to 1% across each plate. 50 μL of RPMI-8866 cells with a stable loss of function (LOF) mutation of the ITGB1 gene (2×10^6 per mL) were added to each well and the plates were incubated for 1 hour at 37° C. at a CO2 concentration of 5%. After incubation, plates were allowed to cool to RT for 10 minutes before being washed four times in assay buffer by an automated plate washer (BioTek). After washing, 100 μL of a 1:1 mixture of assay buffer and CellTiter GLO 2.0 reagent (Promega) were added to each well. Plates were mixed for 2 minutes at 1000 rpm and then allowed to incubate an additional 10 minutes before reading out luminescence on a Tecan Spark plate reader. […]

For the next experiment, the target named is α4β1 integrin (Homo sapiens (Human), UniProt P05556+P13612). Nature of the experiment: Integrin Adhesion Assay: Protocol 5 (VCAM-coated plate, RPMI-8866 cells with stable LOF mutation of the ITGB7 gene). Format: cell-based. The note with it: RPMI-8866 cells with stable LOF mutation of the ITGB7 gene; read-out: Mean IC50 α4β1 KO^b. As for the experimental part: as §1, §2, §3, §4, §5, §6
α4β1 integrin, sequence (P13612 34-1032): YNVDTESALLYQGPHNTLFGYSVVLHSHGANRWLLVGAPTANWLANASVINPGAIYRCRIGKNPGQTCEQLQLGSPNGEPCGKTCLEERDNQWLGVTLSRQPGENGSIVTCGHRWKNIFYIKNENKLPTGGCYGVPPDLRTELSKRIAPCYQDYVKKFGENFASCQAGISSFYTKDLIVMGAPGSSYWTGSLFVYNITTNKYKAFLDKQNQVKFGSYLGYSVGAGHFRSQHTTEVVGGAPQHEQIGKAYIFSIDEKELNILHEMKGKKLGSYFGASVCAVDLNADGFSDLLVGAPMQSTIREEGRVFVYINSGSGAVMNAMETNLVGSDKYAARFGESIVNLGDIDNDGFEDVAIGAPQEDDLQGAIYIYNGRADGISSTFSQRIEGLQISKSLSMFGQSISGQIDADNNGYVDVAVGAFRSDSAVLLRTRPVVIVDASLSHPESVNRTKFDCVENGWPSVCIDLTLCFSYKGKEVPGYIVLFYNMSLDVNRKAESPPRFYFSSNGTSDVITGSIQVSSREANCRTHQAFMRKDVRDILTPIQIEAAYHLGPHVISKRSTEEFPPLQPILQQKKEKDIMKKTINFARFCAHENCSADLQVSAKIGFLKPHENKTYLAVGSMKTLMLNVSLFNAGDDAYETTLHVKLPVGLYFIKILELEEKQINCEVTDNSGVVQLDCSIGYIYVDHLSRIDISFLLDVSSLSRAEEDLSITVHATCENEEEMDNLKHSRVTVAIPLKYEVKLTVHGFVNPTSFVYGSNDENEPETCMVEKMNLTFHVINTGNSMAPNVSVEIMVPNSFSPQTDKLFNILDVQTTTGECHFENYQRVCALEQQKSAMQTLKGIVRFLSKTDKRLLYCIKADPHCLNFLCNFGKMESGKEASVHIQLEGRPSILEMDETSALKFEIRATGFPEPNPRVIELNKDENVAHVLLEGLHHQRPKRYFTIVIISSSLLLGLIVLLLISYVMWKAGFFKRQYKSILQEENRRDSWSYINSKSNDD
α4β1 integrin, sequence (P05556 21-798): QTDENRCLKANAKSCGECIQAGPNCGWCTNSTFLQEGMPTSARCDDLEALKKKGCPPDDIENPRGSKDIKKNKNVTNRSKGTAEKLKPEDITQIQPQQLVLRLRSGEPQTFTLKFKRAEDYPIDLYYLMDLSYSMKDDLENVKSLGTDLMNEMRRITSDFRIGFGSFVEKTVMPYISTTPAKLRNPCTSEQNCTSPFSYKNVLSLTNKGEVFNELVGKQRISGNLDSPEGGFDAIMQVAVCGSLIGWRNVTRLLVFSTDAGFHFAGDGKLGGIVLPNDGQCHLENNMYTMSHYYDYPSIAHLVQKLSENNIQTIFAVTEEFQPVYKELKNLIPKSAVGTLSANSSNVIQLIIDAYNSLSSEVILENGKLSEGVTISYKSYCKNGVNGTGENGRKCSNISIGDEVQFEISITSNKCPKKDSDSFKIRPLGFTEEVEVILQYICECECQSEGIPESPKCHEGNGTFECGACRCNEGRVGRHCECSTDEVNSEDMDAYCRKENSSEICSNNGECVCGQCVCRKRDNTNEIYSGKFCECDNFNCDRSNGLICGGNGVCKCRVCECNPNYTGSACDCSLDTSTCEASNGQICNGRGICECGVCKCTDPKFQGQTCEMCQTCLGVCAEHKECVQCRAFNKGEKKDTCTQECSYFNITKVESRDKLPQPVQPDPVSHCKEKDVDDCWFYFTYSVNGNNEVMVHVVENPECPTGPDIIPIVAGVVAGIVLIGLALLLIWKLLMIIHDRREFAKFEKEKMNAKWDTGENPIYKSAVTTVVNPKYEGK
Integrin Adhesion Assay: Protocol 5
as §7, with “VCAM” for “MAdCAM”, “by” for “using a”, “(Tecan)” for “(Tecan),”, “LOF” for “loss of function (LOF)”, “ITGB7” for “ITGB1”, “and 5% CO2.” for “at a CO2 concentration of 5%.”

Some results are limits rather than exact numbers.

α4β7 integrin, sequence (P13612 34-1032): as the sequence (P13612 34-1032) above
α4β7 integrin, sequence (P26010 20-798): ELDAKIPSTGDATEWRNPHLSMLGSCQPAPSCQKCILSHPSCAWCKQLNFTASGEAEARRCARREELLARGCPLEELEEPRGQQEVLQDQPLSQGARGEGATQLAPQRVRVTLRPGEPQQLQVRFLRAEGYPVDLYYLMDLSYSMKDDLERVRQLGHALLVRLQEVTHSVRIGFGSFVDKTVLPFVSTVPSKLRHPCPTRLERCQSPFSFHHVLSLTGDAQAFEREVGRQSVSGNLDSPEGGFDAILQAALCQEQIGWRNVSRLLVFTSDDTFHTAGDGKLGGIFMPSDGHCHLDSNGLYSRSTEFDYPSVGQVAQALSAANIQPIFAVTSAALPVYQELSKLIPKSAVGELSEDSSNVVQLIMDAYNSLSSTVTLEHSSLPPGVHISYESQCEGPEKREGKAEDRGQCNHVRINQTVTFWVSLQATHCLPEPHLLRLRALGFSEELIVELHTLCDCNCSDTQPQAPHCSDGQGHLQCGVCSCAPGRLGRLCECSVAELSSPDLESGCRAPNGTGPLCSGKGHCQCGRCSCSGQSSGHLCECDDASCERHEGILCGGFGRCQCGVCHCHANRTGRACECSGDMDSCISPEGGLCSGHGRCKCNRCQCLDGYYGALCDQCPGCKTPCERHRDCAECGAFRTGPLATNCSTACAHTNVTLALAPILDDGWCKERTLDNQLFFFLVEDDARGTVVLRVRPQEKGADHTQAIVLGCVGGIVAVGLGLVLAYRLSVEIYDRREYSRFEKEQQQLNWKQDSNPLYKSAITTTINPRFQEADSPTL

Consider `Cn1c(=O)c(-c2cccc3c(C[C@H](NC(=O)C4(C(F)(F)F)CCN(CC(F)F)CC4)C(=O)O)cccc23)c(C(F)(F)F)c2ccccc21` (racemic) [Compound 480], for which the results for the 50% inhibitory concentration (IC50) on α4β7 integrin and on α4β1 integrin were less than 10 nM and 100 to 1000 nM, respectively.

Take `Cn1c(=O)c(-c2cccc3c(C[C@H](NC(=O)C4(C(F)(F)F)CCN([C@H]5CCC(F)(F)C5)CC4)C(=O)O)cccc23)c(C(F)(F)F)c2ccccc21` (single isomer, unassigned) [Compound 495]: the results for the IC50 on α4β7 integrin and on α4β1 integrin were 10 to 100 nM and more than 1000 nM, respectively.

As for `COc1ccc(CN2CCC(F)(F)CC2)c(OC)c1-c1cccc2c(C[C@H](NC(=O)C3(C(F)(F)F)CCN(C4COCC4(F)F)CC3)C(=O)O)cccc12` (single isomer, unassigned) [Compound 639], the IC50 at α4β7 integrin is less than 10 nM; on α4β1 integrin, 100 to 1000 nM.

With `COc1ccc(CN2CCC(F)(F)CC2)c(OC)c1-c1cccc2c(C[C@H](NC(=O)C3(C(F)(F)F)CCN(C4COCC4(F)F)CC3)C(=O)O)cccc12` (single isomer, unassigned) [Compound 640], the IC50 on α4β7 integrin was 10 to 100 nM; at α4β1 integrin, more than 1000 nM.

For `CN(C)Cc1cccc2c(-c3cccc4c(C[C@H](NC(=O)C5(C(F)(F)F)CCN(CC(F)(F)F)CC5)C(=O)O)cccc34)nccc12` [Compound 421], the results for the concentration for half-maximal inhibition (IC50) on α4β7 integrin and on α4β1 integrin were less than 10 nM and more than 1000 nM, respectively.

Regarding `CCOCc1cc(OC)c(-c2cccc3c(C[C@H](NC(=O)C4(C(F)(F)F)CCN(CC(F)(F)F)CC4)C(=O)O)cccc23)c(OC)c1` [Compound 430], the IC50 on α4β7 integrin was less than 10 nM; at α4β1 integrin it was 100 to 1000 nM.

For the compound `Cn1c(=O)c(-c2cccc3c(C[C@H](NC(=O)C4(C(F)(F)F)CCN(C5COC5)CC4)C(=O)O)cccc23)c(C(F)(F)F)c2ccccc21` [Compound 432], the half-inhibitory concentration (IC50) on α4β7 integrin was less than 10 nM; at α4β1 integrin, 10 to 100 nM.

As to `Cc1cccc(F)c1C(=O)N[C@@H](Cc1cccc2c(-c3c(C(F)(F)F)c4cc(CN(C)C)ccc4n(C)c3=O)cccc12)C(=O)O` [Compound 451], the IC50 on α4β7 integrin is less than 10 nM; on α4β1 integrin, 100 to 1000 nM.

In the case of `Cc1cc(C(F)(F)F)c(-c2cccc3c(C[C@H](NC(=O)C4(C(F)(F)F)CCN(CC(F)(F)F)CC4)C(=O)O)cccc23)c(=O)n1C` [Compound 453], the IC50 at α4β7 integrin was less than 10 nM; on α4β1 integrin, 100 to 1000 nM.

For the compound `COc1ccc(CN(C)C)c(OC)c1-c1cccc2c(C[C@H](NC(=O)C3(C(F)(F)F)CCN(CC(F)(F)F)CC3)C(=O)O)cccc12` [Compound 455], the IC50 on α4β7 integrin was less than 10 nM; at α4β1 integrin, 100 to 1000 nM.

For `Cn1c(=O)c(-c2cccc3c(C[C@H](NC(=O)C4(C(F)(F)F)CCN([C@H]5CCOC5)CC4)C(=O)O)cccc23)c(C(F)(F)F)c2ccccc21` [Compound 457], the IC50 on α4β7 integrin is less than 10 nM; on α4β1 integrin, 100 to 1000 nM.

Turning to `COc1ccc(CCN(C)C)c(OC)c1-c1cccc2c(C[C@H](NC(=O)C3(C(F)(F)F)CCN(CC(F)(F)F)CC3)C(=O)O)cccc12` [Compound 468], the figures for the half-maximal inhibitory concentration (IC50) at α4β7 integrin and on α4β1 integrin were less than 10 nM and 100 to 1000 nM, respectively.

`CN(C)CCc1cc(-c2cccc3c(C[C@H](NC(=O)C4(C(F)(F)F)CCN(CC(F)(F)F)CC4)C(=O)O)cccc23)c2cnccc2c1` [Compound 469]: the IC50 on α4β7 integrin is 10 to 100 nM; on α4β1 integrin it was 100 to 1000 nM.

Consider `COC(=O)[C@H](Cc1cccc2c(-c3nccc4cc(CCN(C)C)ccc34)cccc12)NC(=O)OC(C)(C)C` [Compound 471], for which the figures for the IC50 at α4β7 integrin and on α4β1 integrin were less than 10 nM and 100 to 1000 nM, respectively.

For `COc1ccc2cccnc2c1-c1cccc2c(C[C@H](NC(=O)C3(C(F)(F)F)CCN(CC(F)(F)F)CC3)C(=O)O)cccc12` [Compound 472], the 50% inhibitory concentration (IC50) on α4β7 integrin was less than 10 nM; on α4β1 integrin, more than 1000 nM.

Regarding `COc1cc2c(c(OC)c1-c1cccc3c(C[C@H](NC(=O)c4c(C)cccc4F)C(=O)O)cccc13)CN(C)CC2` [Compound 473], the IC50 was less than 10 nM at α4β7 integrin and 100 to 1000 nM at α4β1 integrin.

Take `COc1cc2c(c(OC)c1-c1cccc3c(C[C@H](NC(=O)C4(C(F)(F)F)CCN(CC(F)(F)F)CC4)C(=O)O)cccc13)CN(C)CC2` [Compound 474]: the concentration for half-maximal inhibition (IC50) is less than 10 nM on α4β7 integrin and 100 to 1000 nM on α4β1 integrin.

On to `COc1cc2c(c(OC)c1-c1cccc3c(C[C@H](NC(=O)c4c(C)cccc4F)C(=O)O)cccc13)CN(CC(F)(F)F)CC2` [Compound 475], for which the IC50 is less than 10 nM on α4β7 integrin and 100 to 1000 nM at α4β1 integrin.

Consider `CN(C)Cc1ccc2c(C(F)(F)F)c(-c3cccc4c(C[C@H](NC(=O)C5(C(F)(F)F)CCN(CC(F)(F)F)CC5)C(=O)O)cccc34)c(=O)n(C)c2c1` [Compound 476], for which the IC50 on α4β7 integrin was less than 10 nM; at α4β1 integrin, 100 to 1000 nM.

Regarding `COc1cncc(OC)c1-c1cccc2c(C[C@H](NC(=O)c3c(C)cccc3F)C(=O)O)cccc12` [Compound 477], the IC50 is less than 10 nM on α4β7 integrin and 100 to 1000 nM on α4β1 integrin.

Regarding `COc1cc(CN(C)C)cc(OC)c1-c1cccc2c(C[C@H](NC(=O)C3(C(F)(F)F)CCN(CC(F)(F)F)CC3)C(=O)O)cccc12` [Compound 478], the half-inhibitory concentration (IC50) at α4β7 integrin is less than 10 nM; at α4β1 integrin, more than 1000 nM.

Regarding `COc1ccc(CN(C)C)c(OC)c1-c1cccc2c(C[C@H](NC(=O)c3c(F)cccc3C(F)(F)F)C(=O)O)cccc12` [Compound 479], the half-inhibitory concentration (IC50) on α4β7 integrin is less than 10 nM; on α4β1 integrin, 100 to 1000 nM.

For `Cn1c(=O)c(-c2cccc3c(C[C@H](NC(=O)C4(C)CC5CCC(C4)N5CC(F)(F)F)C(=O)O)cccc23)c(C(F)(F)F)c2ccccc21` (stereo partly shown) [Compound 481], the IC50 on α4β7 integrin lay within 10 to 100 nM; on α4β1 integrin it was 100 to 1000 nM.

With `O=C(O)[C@H](Cc1cccc2c(-c3nccc4ccc(CCCN5CCCCC5)cc34)cccc12)NC(=O)C1(C(F)(F)F)CCN([C@H]2COCC2(F)F)CC1` [Compound 482], the IC50 was less than 10 nM on α4β7 integrin and 100 to 1000 nM at α4β1 integrin.

As to `O=C(O)[C@H](Cc1cccc2c(-c3nccc4ccc(CCCN5CCCCC5)cc34)cccc12)NC(=O)C1(C(F)(F)F)CCN([C@@H]2COCC2(F)F)CC1` [Compound 483], the IC50 is less than 10 nM at α4β7 integrin and more than 1000 nM at α4β1 integrin.

Turning to `CC[C@@H](N1CCC(C(=O)N[C@@H](Cc2cccc3c(-c4c(C(F)(F)F)c5ccccc5n(C)c4=O)cccc23)C(=O)O)(C(F)(F)F)CC1)C(F)(F)F` [Compound 484], the figures for the half-maximal inhibitory concentration (IC50) at α4β7 integrin and on α4β1 integrin were 100 to 1000 nM and more than 1000 nM, respectively.
